# Measurements published in patent publication US8574563B2 (Bristol-Myers Squibb Company, priority 2006, dated 2013).
# Test system: HCV 1b-377-neo replicon cells
# Experiment: HCV replicon assay, HCV 1b-377-neo replicon cells (1b FRET)
# Type: cell-based, Hepatitis C virus genotype 1b
# Conditions: Hepatitis C virus, HCV 1b-377-neo replicon cells; HCV 1b genotype; read-out: EC50 range against HCV 1b (Table 2, Range)
# Procedure, shortened: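 Compounds tested in HCV genotype 1b-377-neo replicon cells with a FRET read-out. Cells resistant to a reference NS5A inhibitor through a Y2065H NS5A mutation were run alongside wild-type cells.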
structure (smiles),measurement,value
"COC(=O)N[C@H](Cc1ccccc1)C(=O)N1CCC[C@H]1c1ncc(-c2ccc(-c3ccc(-c4cnc([C@@H]5CCCN5C(=O)[C@@H](Cc5ccccc5)NC(=O)OC)[nH]4)cc3)cc2)[nH]1 [cj-145, methyl ((1R)-1-benzyl-2-((2S)-2-(5-(4′-(2-((2S)-1-((2R)-2-((methoxycarbonyl)amino)-3-phenylpropanoyl)-2-pyrrolidinyl)-1H-imidazol-5-yl)-4-biphenylyl)-1H-imidazol-2-yl)-1-pyrrolidinyl)-2-oxoethyl)carbamate]",EC50,1 to 99 nM
"COC(=O)N[C@@H](CCN(C)C)C(=O)N1CCC[C@H]1c1ncc(-c2ccc(-c3ccc(-c4cnc([C@@H]5CCCN5C(=O)[C@H](CCN(C)C)NC(=O)OC)[nH]4)cc3)cc2)[nH]1 [cj-146, dimethyl (4,4′-biphenyldiylbis(1H-imidazole-5,2-diyl(2S)-2,1-pyrrolidinediyl((2S)-4-(dimethylamino)-1-oxo-1,2-butanediyl)))biscarbamate]",EC50,100 to 999 nM
"CN(C)[C@H](Cc1ccccc1)C(=O)N1CCC[C@H]1c1ncc(-c2ccc(-c3ccc(-c4cnc([C@@H]5CCCN5C(=O)[C@@H](Cc5ccccc5)N(C)C)[nH]4)cc3)cc2)[nH]1 [cj-147, (2R,2′R)-1,1′-(4,4′-biphenyldiylbis(1H-imidazole-5,2-diyl(2S)-2,1-pyrrolidinediyl))bis(N,N-dimethyl-1-oxo-3-phenyl-2-propanamine)]",EC50,1 to 99 nM
"COC(=O)N[C@@H](Cc1ccccc1)C(=O)N1CCC[C@H]1c1ncc(-c2ccc(-c3ccc(-c4cnc([C@@H]5CCCN5C(=O)[C@H](Cc5ccccc5)NC(=O)OC)[nH]4)cc3)cc2)[nH]1 [cj-148, methyl ((1S)-1-benzyl-2-((2S)-2-(5-(4′-(2-((2S)-1-((2S)-2-((methoxycarbonyl)amino)-3-phenylpropanoyl)-2-pyrrolidinyl)-1H-imidazol-5-yl)-4-biphenylyl)-1H-imidazol-2-yl)-1-pyrrolidinyl)-2-oxoethyl)carbamate]",EC50,1 to 99 nM
"COC(=O)N[C@H]1CC[C@@H](C(=O)N2CCC[C@H]2c2ncc(-c3ccc(-c4ccc(-c5cnc([C@@H]6CCCN6C(=O)[C@H]6CC[C@@H](NC(=O)OC)CC6)[nH]5)cc4)cc3)[nH]2)CC1 [cj-150, dimethyl (4,4′-biphenyldiylbis(1H-imidazole-5,2-diyl(2S)-2,1-pyrrolidinediylcarbonylcis-4,1-cyclohexanediyl))biscarbamate]",EC50,1 to 99 nM
"COC(=O)N[C@H]1CC[C@H](C(=O)N2CCC[C@H]2c2ncc(-c3ccc(-c4ccc(-c5cnc([C@@H]6CCCN6C(=O)[C@H]6CC[C@H](NC(=O)OC)CC6)[nH]5)cc4)cc3)[nH]2)CC1 [cj-151, dimethyl (4,4′-biphenyldiylbis(1H-imidazole-5,2-diyl(2S)-2,1-pyrrolidinediylcarbonyltrans-4,1-cyclohexanediyl))biscarbamate]",EC50,1 to 99 nM
CCN(CC)[C@H]1CC[C@@H](C(=O)N2CCC[C@H]2c2ncc(-c3ccc(-c4ccc(-c5cnc([C@@H]6CCCN6C(=O)[C@H]6CC[C@@H](N(CC)CC)CC6)[nH]5)cc4)cc3)[nH]2)CC1 [cj-152],EC50,1 to 99 nM
"COC(=O)N[C@@H](Cc1cscn1)C(=O)N1CCC[C@H]1c1ncc(-c2ccc(-c3ccc(-c4cnc([C@@H]5CCCN5C(=O)[C@H](Cc5cscn5)NC(=O)OC)[nH]4)cc3)cc2)[nH]1 [cj-153, methyl ((1S)-2-((2S)-2-(5-(4′-(2-((2S)-1-((2S)-2-((methoxycarbonyl)amino)-3-(1,3-thiazol-4-yl)propanoyl)-2-pyrrolidinyl)-1H-imidazol-5-yl)-4-biphenylyl)-1H-imidazol-2-yl)-1-pyrrolidinyl)-2-oxo-1-(1,3-thiazol-4-ylmethyl)ethyl)carbamate]",EC50,0.001 to 0.999 nM
